Source: paper PMC12040169 (PLOS Biology, 2025)

Assays:
in vitro [1] = conditions: human, hela cells, % viability
in vitro [2] = assay: in vitro; parameters: Viability of infected HeLa host cells, resazurin conversion, bulk resorufin fluorescence relative to DMSO; conditions: human, hela cells; bulk resorufin, mean of 2
[3] = tested on: T1, C. trachomatis L2/434/Bu expressing GFP (CTL2-GFP); assay: microbe, parasite or virus in culture; parameters: C. trachomatis total inclusion area by high-content imaging, normalised to DMSO; conditions: Chlamydia trachomatis, HeLa, 28.5 h; total inclusion area; read-out: % of control remaining
T1 construct: L2/434/Bu GFP intracellular growth in HeLa cells
Procedure, shortened: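 After bulk GFP and resorufin reads, fixed cells were Hoechst-stained and imaged to count chlamydial inclusions and host nuclei. Total inclusion area and number tracked bacterial growth, and nuclei number tracked host viability. MICs were derived, and 36,785 drug-like molecules were screened this way.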

[4] = tested on: T2, CTL2-GFP (C. trachomatis L2/434/Bu, GFP-expressing); assay: microbe, parasite or virus in culture; parameters: Intracellular C. trachomatis growth in HeLa cells, bulk GFP fluorescence relative to DMSO; conditions: Chlamydia trachomatis, HeLa, 28.5 h; bulk GFP, mean of 2; read-out: % of control remaining
T2 construct: L2/434/Bu, GFP-expressing
Protocol: MICs were calculated as described above.

SMILES | viability at 28.5 h, 10 µM (in vitro [1]) [%] | viability at 28.5 h, 1 µM (in vitro [2]) [%] | viability at 28.5 h, 5 µM (in vitro [2]) [%] | viability at 28.5 h, 10 µM (in vitro [2]) [%] | activity at 1 µM [3] [%] | activity at 5 µM [3] [%] | activity at 10 µM [3] [%] | activity at 1 µM [4] [%] | activity at 5 µM [4] [%] | activity at 10 µM [4] [%]
CCn1c2c(c3cc(S(=O)(=O)c4ccc(C(F)(F)F)cc4)ccc31)CCNCC2 [CBK018453C] | 97.5 | 94.5 | 89.4 | 91.9 | 133 | 58.6 | 12.8 | 143 | 54.5 | 5.22
O=C(Nc1ccc(OC(F)(F)F)cc1)Nc1cc(-c2cccs2)n[nH]1 [CBK020563] | 82.5 | 113 | 110 | 117 | 96.5 | 24 | 10.2 | 100 | 13.4 | 4.7
COc1ccc([C@@]23CC[C@@H](Nc4nc(-c5ccc(Br)cc5)cs4)C[C@@H]2N(C)CC3)cc1OC [CBK036543] | 87.7 | 91.3 | 91 | 109 | 76.2 | 68.6 | 45.2 | 138 | 104 | 94.2
O=C(Nc1cc(Cl)nc(Cl)c1)N(Cc1ccc2ccccc2c1)CC1CCNCC1 [CBK049773] | 105 | 95.5 | 95.6 | 96.4 | 120 | 75.2 | 44.5 | 131 | 84.2 | 61.7
O=C(Nc1cc(Cl)nc(Cl)c1)N(Cc1ccc(-c2ccccc2)cc1)CC1CCNCC1 [CBK049794] | 82.6 | 95.2 | 100 | 97.9 | 62.1 | 41.7 | 25.8 | 115 | 90.8 | 90.8
c1ccc2c3c([nH]c2c1)C1(CCN(CCC2CCCCC2)C1)OCC3 (centres unmarked) [CBK061789] | 83.3 | 92.9 | 90 | 84.9 | 51.4 | 5.37 | 3.22 | 168 | 72.4 | 23.7
COc1ccc(C(C)C)cc1-c1cn2ccnc2c(N2CCN(c3ccncc3)CC2)n1 [CBK066217] | 116 | 102 | 104 | 101 | 96.6 | 75.5 | 31.5 | 91.5 | 63.5 | 28.4
O=C(CSc1nnc(-c2cccnc2)o1)c1ccccc1 [CBK068446] | 139 | 112 | 111 | 114 | 67.4 | 24 | 6.22 | 74.8 | 13.2 | 1.98
COc1ccc([C@@H]2CN(C)C[C@H]2NC(=O)Nc2ccc(Cl)c(Cl)c2)cc1OC [CBK081111] | 99.3 | 92.3 | 92.2 | 88.4 | 105 | 25.8 | 3.39 | 118 | 21.4 | 8.62
O=C(Nc1ccc(F)c(F)c1)NC1CCC2CN(CCOc3ccccc3)CC2C1 (centres unmarked) [CBK083365T] | 105 | 89.3 | 86.5 | 88.8 | 35.6 | 0.438 | 0.173 | 34.9 | 8.25 | 5.26
COc1cc(CN2CCNCC2)c2ccn(S(=O)(=O)c3cccc(Cl)c3C)c2c1 [CBK144484T] | 87.1 | 104 | 95.7 | 102 | 90.6 | 59.5 | 23.3 | 113 | 109 | 57.5
O=C(NCCc1c[nH]c2ccc(Cl)cc12)c1c(F)ccc(Cl)c1F [CBK159756] | 93 | 98.5 | 96.7 | 94.6 | 92.7 | 39.2 | 2.12 | 103 | 35.2 | 3.33
CN1CCCN(c2ccc(NS(=O)(=O)c3cccc(F)c3)c3ccccc23)CC1 [CBK200010C] | 84.9 | 94.4 | 100 | 95.1 | 77.8 | 43.7 | 26.8 | 108 | 66.2 | 43.7
CCOc1ccsc1C(=O)NC1Cc2ccccc2C1 [CBK200359] | 82.6 | 104 | 96.4 | 93 | 88.7 | 0.493 | 0.44 | 57.4 | 3.62 | 6.67
NCCCNc1ncc(C(=O)NCc2ccccc2)c(NCC2CCCCC2)n1 [CBK215386] | 103 | 113 | 116 | 96.6 | 95.7 | 73.1 | 19.8 | 97.9 | 89.2 | 32.4
O=C(N/N=C/c1c(O)ccc2ccccc12)c1ccc(CO)nc1 [CBK261375] | 84.7 | 89.8 | 84.2 | 76.9 | 112 | 72.5 | 32.1 | 130 | 69 | 32.3
O=C(Nc1cccc(OC(=O)c2cc(S(=O)(=O)N3CCCCC3)ccc2Cl)c1)c1ccco1 [CBK262186] | 110 | 101 | 96.6 | 100 | 101 | 85.8 | 33.3 | 110 | 106 | 76.3
